Data as given in US5236900A, “Anti-fungal agents” (Schering Corporation, priority 1991, dated 1993).

How the values were obtained:
[1] = test system: Sensitive strains: Candida albicans C141, Candida sp. C2, Candida sp. C109, Candida parapsilosis C67, Candida tropicalis C112, Torulopsis glabrata C95, Candida …; experiment: Microtiter minimum inhibitory concentration (MIC) test, sensitive strains; assay type: cell-based, Candida spp., Sacchararomyces; settings: geometric mean of MICs against sensitive strains; YNB pH 5.4, 37° C., 48 hours
Experimental: (§1) In vitro anti-fungal activity was determined in microtiter minimum inhibitory concentration (MIC) tests using Yeast Nitrogen Broth (YNB without amino acids, Difco., Detroit, Mich.) at pH 5.4. Yeasts were grown overnight in Sabouraud Dextrose Broth at 28° C. with shaking, and concentrations adjusted in sterile saline using a spectrophoptometer at 540 mμ. Compounds were dissolved in various vehicles and diluted in media to twice the final concentrations. The Cetus Pro/Pette system was used to serially dilute 50 μl in round bottom 96 well plates (Falcon, Lincoln Park, N.J.). The turbidometrically adjusted yeast suspensions were diluted 1:3,000 in YNB. These dilutions when added to the wells, produced a final inoculum of 3×10^3 /ml. Plates were incubated at 37° C. for 48 hours. MICs were defined as the lowest concentrations of compound that prevented visible growth. MICs were taken against the following organisms and expressed in the table above as the geometric mean.
Candida pseudotropicalis C 967
Candida guillermondii C137
Sacchararomyces mutant C147

[2] = test system: Resistant strains: Candida albicans C79, C6, C8, C31, C54, C70, C104, C138, C140; Candida stellatoidea C45; experiment: Microtiter minimum inhibitory concentration (MIC) test, resistant strains; assay type: cell-based; settings: geometric mean of MICs against resistant strains; YNB pH 5.4, 37° C., 48 hours
Experimental: as §1

Substance: 6'-Dodecylamido-5-N-L-Valinyl-UPOC [Compound 3]
- MIC-S [1]: 26 µg/mL
- MIC-R [2]: 17 µg/mL
